# From ChEMBL document CHEMBL4257490, “Development of a peptide-based bifunctional chelator conjugated to a cytotoxic drug for the treatment of melanotic melanoma” (Medchemcomm, 2018)
# Key:
# [1] = Drug uptake in spleen of Balb/c mouse allografted with mouse B16F10 cells using 99mTc(CO)3-labeled compound at 10 to 12 MBq/kg, iv measured at 4 hrs; assay type: ADME, organism-based; details: in vivo
# [2] = Drug uptake in kidney of Balb/c mouse allografted with mouse B16F10 cells using 99mTc(CO)3-labeled compound at 10 to 12 MBq/kg, iv measured at 4 hrs; assay type: ADME, organism-based; details: in vivo
# [3] = Metabolic stability in rat serum assessed as parent compound remaining using 99mTc(CO)3-labeled compound after 24 hrs by TLC method; assay type: ADME, cell-free; details: read-out: Stability
# [4] = Drug uptake in blood of Balb/c mouse allografted with mouse B16F10 cells using 99mTc(CO)3-labeled compound at 10 to 12 MBq/kg, iv measured at 2 hrs; assay type: ADME, organism-based; details: in vivo
# [5] = Ratio of drug level in tumor to muscle of Balb/c mouse allografted with mouse B16F10 cells using 99mTc(CO)3-labeled compound at 10 to 12 MBq/kg, iv measured at 4 hrs; assay type: ADME, organism-based, Tumor/tissue; details: in vivo
# [6] = Drug uptake in muscle of Balb/c mouse allografted with mouse B16F10 cells using 99mTc(CO)3-labeled compound at 10 to 12 MBq/kg, iv measured at 2 hrs; assay type: ADME, organism-based, Muscle tissue; details: in vivo
# [7] = Drug uptake in tumor muscle of Balb/c mouse allografted with mouse B16F10 cells using 99mTc(CO)3-labeled compound at 10 to 12 MBq/kg, iv measured at 4 hrs; assay type: ADME, organism-based; details: in vivo
# [8] = Drug uptake in urinary bladder of Balb/c mouse allografted with mouse B16F10 cells using 99mTc(CO)3-labeled compound at 4 to 8 MBq, iv measured at 4 hrs by scintigraphic imaging method; assay type: ADME, organism-based; details: in vivo
# [9] = Drug uptake in stomach of Balb/c mouse allografted with mouse B16F10 cells using 99mTc(CO)3-labeled compound at 10 to 12 MBq/kg, iv measured at 2 hrs; assay type: ADME, organism-based; details: in vivo
# [10] = Drug uptake in mouse B16F10 cells using 99mTc(CO)3-labeled compound at 15 to 20 MBq/ml after 240 mins by gamma scintillation counting method; assay type: ADME, cell-based; details: b16-f10, 4 h
# [11] = Ratio of drug level in tumor to muscle of Balb/c mouse allografted with mouse B16F10 cells using 99mTc(CO)3-labeled compound at 10 to 12 MBq/kg, iv measured at 2 hrs; assay type: ADME, organism-based, Tumor/tissue; details: in vivo
# [12] = Hemolytic activity in rat erythrocytes at 100 uM after 1 hr relative to control; assay type: ADME, cell-based, Erythrocyte; details: read-out: Activity
# [13] = Drug uptake in heart of Balb/c mouse allografted with mouse B16F10 cells using 99mTc(CO)3-labeled compound at 10 to 12 MBq/kg, iv measured at 4 hrs; assay type: ADME, organism-based; details: in vivo
# [14] = Drug uptake in liver of Balb/c mouse allografted with mouse B16F10 cells using 99mTc(CO)3-labeled compound at 10 to 12 MBq/kg, iv measured at 2 hrs; assay type: ADME, organism-based; details: in vivo
# [15] = Drug uptake in gastrointestinal tract of Balb/c mouse allografted with mouse B16F10 cells using 99mTc(CO)3-labeled compound at 4 to 8 MBq, iv measured at 4 hrs by scintigraphic imaging method; assay type: ADME, organism-based; details: in vivo
# [16] = Drug uptake in kidney of Balb/c mouse allografted with mouse B16F10 cells using 99mTc(CO)3-labeled compound at 10 to 12 MBq/kg, iv measured at 2 hrs; assay type: ADME, organism-based; details: in vivo
# [17] = Drug uptake in tumor of Balb/c mouse allografted with mouse B16F10 cells using 99mTc(CO)3-labeled compound at 4 to 8 MBq, iv measured at 4 hrs by scintigraphic imaging method; assay type: ADME, organism-based, Neoplasm; details: in vivo
# [18] = Drug uptake in spleen of Balb/c mouse allografted with mouse B16F10 cells using 99mTc(CO)3-labeled compound at 10 to 12 MBq/kg, iv measured at 2 hrs; assay type: ADME, organism-based; details: in vivo
# [19] = Drug uptake in liver of Balb/c mouse allografted with mouse B16F10 cells using 99mTc(CO)3-labeled compound at 10 to 12 MBq/kg, iv measured at 4 hrs; assay type: ADME, organism-based; details: in vivo
# [20] = Drug uptake in mouse B16F10 cells using 99mTc(CO)3-labeled compound at 15 to 20 MBq/ml after 240 mins by gamma scintillation counting method relative to total added activity; assay type: ADME, cell-based; details: b16-f10, 4 h
# [21] = Hemolytic activity in rat erythrocytes up to 50 uM after 1 hr relative to control; assay type: ADME, cell-based, Erythrocyte; details: read-out: Activity
# [22] = Ratio of drug level in tumor to blood of Balb/c mouse allografted with mouse B16F10 cells using 99mTc(CO)3-labeled compound at 10 to 12 MBq/kg, iv measured at 2 hrs; assay type: ADME, organism-based, Tumor/tissue
# [23] = Drug uptake in kidney of Balb/c mouse allografted with mouse B16F10 cells using 99mTc(CO)3-labeled compound at 4 to 8 MBq, iv measured at 4 hrs by scintigraphic imaging method; assay type: ADME, organism-based; details: in vivo
# [24] = Drug uptake in liver of Balb/c mouse allografted with mouse B16F10 cells using 99mTc(CO)3-labeled compound at 4 to 8 MBq, iv measured at 4 hrs by scintigraphic imaging method; assay type: ADME, organism-based; details: in vivo
# [25] = n-Octanol-phosphate buffer partition co-efficient, log P of 99mTc(CO)3-labeled compound at 2 to 3 KBq after 1 min by gamma scintillation counting method; assay type: physicochemical
# [26] = Drug uptake in heart of Balb/c mouse allografted with mouse B16F10 cells using 99mTc(CO)3-labeled compound at 10 to 12 MBq/kg, iv measured at 2 hrs; assay type: ADME, organism-based; details: in vivo
# [27] = Drug uptake in mouse B16F10 cells using 99mTc(CO)3-labeled compound at 15 to 20 MBq/ml after 30 mins by gamma scintillation counting method; assay type: ADME, cell-based; details: b16-f10, 0.5 h
# [28] = Drug uptake in intestine of Balb/c mouse allografted with mouse B16F10 cells using 99mTc(CO)3-labeled compound at 10 to 12 MBq/kg, iv measured at 4 hrs; assay type: ADME, organism-based; details: in vivo
# [29] = Drug uptake in muscle of Balb/c mouse allografted with mouse B16F10 cells using 99mTc(CO)3-labeled compound at 10 to 12 MBq/kg, iv measured at 4 hrs; assay type: ADME, organism-based, Muscle tissue; details: in vivo
# [30] = Drug uptake in mouse B16F10 cells using 99mTc(CO)3-labeled compound at 15 to 20 MBq/ml after 30 mins by gamma scintillation counting method relative to total added activity; assay type: ADME, cell-based; details: b16-f10, 0.5 h
# [31] = Drug uptake in blood of Balb/c mouse allografted with mouse B16F10 cells using 99mTc(CO)3-labeled compound at 10 to 12 MBq/kg, iv measured at 4 hrs; assay type: ADME, organism-based; details: in vivo
# [32] = Drug uptake in intestine of Balb/c mouse allografted with mouse B16F10 cells using 99mTc(CO)3-labeled compound at 10 to 12 MBq/kg, iv measured at 2 hrs; assay type: ADME, organism-based; details: in vivo
# [33] = Drug degradation in histidine solution using 99mTc(CO)3-labeled compound after 24 hrs by TLC method; assay type: physicochemical; details: read-out: Drug degradation
# [34] = Drug uptake in tumor muscle of Balb/c mouse allografted with mouse B16F10 cells using 99mTc(CO)3-labeled compound at 10 to 12 MBq/kg, iv measured at 2 hrs; assay type: ADME, organism-based; details: in vivo
# [35] = Ratio of drug level in tumor to blood of Balb/c mouse allografted with mouse B16F10 cells using 99mTc(CO)3-labeled compound at 10 to 12 MBq/kg, iv measured at 4 hrs; assay type: ADME, organism-based, Tumor/tissue
# [36] = Drug uptake in stomach of Balb/c mouse allografted with mouse B16F10 cells using 99mTc(CO)3-labeled compound at 10 to 12 MBq/kg, iv measured at 4 hrs; assay type: ADME, organism-based; details: in vivo
# [37] = Drug uptake in urine of Balb/c mouse allografted with mouse B16F10 cells using 99mTc(CO)3-labeled compound at 10 to 12 MBq/kg, iv measured at 2 hrs; assay type: ADME, organism-based; details: in vivo
# [38] = Stability in saline assessed as parent compond remaining using 99mTc(CO)3-labeled compound after 24 hrs by TLC method; assay type: physicochemical; details: read-out: Stability
# [39] = Drug uptake in urine of Balb/c mouse allografted with mouse B16F10 cells using 99mTc(CO)3-labeled compound at 10 to 12 MBq/kg, iv measured at 4 hrs; assay type: ADME, organism-based; details: in vivo
# [40] = Drug uptake in lung of Balb/c mouse allografted with mouse B16F10 cells using 99mTc(CO)3-labeled compound at 10 to 12 MBq/kg, iv measured at 2 hrs; assay type: ADME, organism-based; details: in vivo
# [41] = Drug uptake in lung of Balb/c mouse allografted with mouse B16F10 cells using 99mTc(CO)3-labeled compound at 10 to 12 MBq/kg, iv measured at 4 hrs; assay type: ADME, organism-based; details: in vivo
substance,measurement,setting,value
H-HYKHGKDGR-NH2,Drug uptake,[1],0.54 % ID/g
same,Drug uptake,[2],13.91 % ID/g
same,remaining at 24 h,[3],≥ 92%
same,Drug uptake,[4],1.5 %ID/ml
same,Ratio,[5],7.78
same,Drug uptake,[6],0.16 % ID/g
same,Drug uptake,[7],1.09 % ID/g
same,Drug uptake,[8],Active
same,Drug uptake,[9],0.29 % ID/g
same,Drug uptake,[10],76%
same,Ratio,[11],5.75
same,"hemolysis at 1 h, 100 µM",[12],7 to 9%
same,Drug uptake,[13],0.07 % ID/g
same,Drug uptake,[14],21.17 % ID/g
same,Drug uptake,[15],Active
same,Drug uptake,[16],16.12 % ID/g
same,Drug uptake,[17],Not Active
same,Drug uptake,[18],0.76 % ID/g
same,Drug uptake,[19],18.89 % ID/g
same,Drug uptake,[20],6.11%
same,hemolysis at 1 h,[21],5 to 6%
same,Kp at 2 h,[22],0.61
same,Drug uptake,[23],Active
same,Drug uptake,[24],Active
same,logP at 1 min,[25],-1.34
same,Drug uptake,[26],0.09 % ID/g
same,Drug uptake,[27],35.24%
same,Drug uptake,[28],6.3 % ID/g
same,Drug uptake,[29],0.14 % ID/g
same,Drug uptake,[30],3.99%
same,Drug uptake,[31],1.31 %ID/ml
same,Drug uptake,[32],7.5 % ID/g
same,degraded at 24 h,[33],5%
same,Drug uptake,[34],0.92 % ID/g
same,Kp at 4 h,[35],0.83
same,Drug uptake,[36],0.21 % ID/g
same,Drug uptake,[37],41.15 %ID/ml
same,remaining at 24 h,[38],≥ 92%
same,Drug uptake,[39],45.95 %ID/ml
same,Drug uptake,[40],0.25 % ID/g
same,Drug uptake,[41],0.19 % ID/g
